This series in a line: Metabolic stability in human liver microsomes. It is filed as in vitro ADME. The note with it: pH 7.4; human liver microsomes 0.5 mg/mL, 1 μM compound. On the procedure:
Microsome assay: human liver microsomes: 0.5 mg/mL, Xenotech; rat liver microsomes: 0.5 mg/mL, Xenotech; coenzyme (NADPH/NADH): 1 mM, Sigma Life Science; magnesium chloride: 5 mM, 100 mM phosphate buffer (pH 7.4).
Preparation of stock solutions: Powder of the example compounds and the control compound were accurately weighed and dissolved in DMSO to 5 mM respectively.
Preparation of phosphate buffer (100 mM, pH7.4): A pre-prepared 0.5 M potassium dihydrogen phosphate (150 mL) was mixed with 0.5 M dibasic potassium phosphate (700 mL). The pH of the mixture was adjusted to 7.4 with 0.5 M dibasic potassium phosphate solution. The mixture was diluted 5-fold with ultrapure water before use, and magnesium chloride was added to obtain a phosphate buffer (100 mM) containing 100 mM potassium phosphate, 3.3 mM magnesium chloride, pH 7.4.
A NADPH regeneration system solution (containing 6.5 mM NADP, 16.5 mM G-6-P, 3 U/mL G-6-P D, 3.3 mM magnesium chloride) was prepared and placed on wet ice prior to use.
Preparation of stop solution: an acetonitrile solution containing 50 ng/mL propranolol hydrochloride and 200 ng/mL tolbutamide (internal standard). 25057.5 μL of phosphate buffer (pH 7.4) was taken into a 50 mL centrifuge tube, to which 812.5 μL of human liver microsomes were added, and mixed to obtain a liver microsome dilution with a protein concentration of 0.625 mg/mL. 25057.5 μL of phosphate buffer (pH 7.4) was taken into a 50 mL centrifuge tube, to which 812.5 μL of SD rat microsomes were added, and mixed to obtain a liver microsome dilution with a protein concentration of 0.625 mg/mL.
Incubation of the samples: The stock solutions of the respective compounds were respectively diluted to 0.25 mM with an aqueous solution containing 70% acetonitrile, and used as a working solution, ready for use. 398 μL of the dilutions of human liver microsomes and rat liver microsomes were added to 96-well incubation plates (N=2), respectively, and 2 μL of 0.25 mM working solution was added respectively and mixed.
Metabolic stability assay: 300 μL of pre-chilled stop solution was added to each well of 96-well deep well plates and placed on ice as stop plates. The 96-well incubation plates and NADPH regeneration system were placed in a 37° C. water bath, shaken at 100 rpm and pre-incubated for 5 min. 80 μL of incubation solution was taken out from each well of the incubation plates and added to the stop plates, mixed, and replenished with 20 μL of NADPH regeneration system solution as a 0-min sample. 80 μL of NADPH regeneration system solution was added to each well of the incubation plates to start the reaction and start counting. […] Separately, 100 μL of the reaction solutions was taken at 10, 30, and 90 min after the reaction, respectively, added to stop plates, and vortexed for 3 minutes to terminate the reaction. The stop plates were centrifuged at 5000×g at 4° C. for 10 min. 100 μL of the supernatant was added to a 96-well plate to which 100 μL of distilled water was previously added, mixed, and analyzed by LC-MS/MS.
Data analysis: The peak areas of the corresponding compounds and internal standard were detected by LC-MS/MS system, and the ratio of the peak area of the compounds to the internal standard was calculated.
(Microsomes from liver hold many membrane-bound enzymes, among them those of drug oxidation.)
Broadly, the half-life is the time in which the quantity being followed falls by half. The low end stands for rapid decline, the high end for slow decline. For orientation: microsomal CLint means the capacity of the preparation to metabolise the compound, expressed as a volume cleared per time. `[2H]C([2H])([2H])N1CCN(C2CCN(c3ccc(Nc4nc(NC5CCOCC5)c(CC)nc4C(N)=O)cc3OC)CC2)CC1` [Compound T-2, 6-ethyl-3-((3-methoxy-4-(4-(4-(methyl-d3)piperazin-1-yl)piperidin-1-yl)phenyl)amino)-5-((tetrahydro-2H-pyran-4-yl)amino)pyrazine-2-carboxamide]: the half-life at 1 μM came out at 3.63 h and the microsomal CLint at 1 μM came out at 6.4 µL/min/mg.

With `[2H]C([2H])([2H])Oc1cc(Nc2nc(NC3CCOCC3)c(CC)nc2C(N)=O)ccc1N1CCC(N2CCN(C([2H])([2H])[2H])CC2)CC1` [Compound T-3, 6-ethyl-3-((3-(methoxy-d3)-4-(4-(4-(methyl-d3)piperazin-1-yl)piperidin-1-yl)phenyl)amino)-5-((tetrahydro-2H-pyran-4-yl)amino)pyrazine-2-carboxamide], the half-life at 1 μM was 3.33 h and the microsomal CLint at 1 μM was determined as 6.9 µL/min/mg.

For the compound `[2H]C([2H])([2H])N1CCN(C2CCN(c3ccc(Nc4nc(NC5CCOCC5)c(C([2H])([2H])C([2H])([2H])[2H])nc4C(N)=O)cc3OC)CC2)CC1` [Compound T-5, 6-(ethyl-d5)-3-((3-methoxy-4-(4-(4-(methyl-d3)piperazin-1-yl)piperidin-1-yl)phenyl)amino)-5-((tetrahydro-2H-pyran-4-yl)amino)pyrazine-2-carboxamide], the half-life at 1 μM came to 3.14 h and the microsomal CLint at 1 μM turned out to be 7.4 µL/min/mg.

`[2H]C1([2H])N(C)C([2H])([2H])C([2H])([2H])N(C2CCN(c3ccc(Nc4nc(NC5CCOCC5)c(CC)nc4C(N)=O)cc3OC)CC2)C1([2H])[2H]` [Compound T-8, 6-ethyl-3-((3-methoxy-4-(4-(4-methylpiperazin-1-yl-2,2,3,3,5,5,6,6-d8)piperidin-1-yl)phenyl)amino)-5-((tetrahydro-2H-pyran-4-yl)amino)pyrazine-2-carboxamide] displayed a half-life at 1 μM of 4.36 h and a microsomal CLint at 1 μM of 5.3 µL/min/mg.

Compound `[2H]C([2H])([2H])N1C([2H])([2H])C([2H])([2H])N(C2CCN(c3ccc(Nc4nc(NC5CCOCC5)c(CC)nc4C(N)=O)cc3OC)CC2)C([2H])([2H])C1([2H])[2H]` [Compound T-9, 6-ethyl-3-((3-methoxy-4-(4-(4-(methyl-d3)piperazin-1-yl-2,2,3,3,5,5,6,6-d8)piperidin-1-yl)phenyl)amino)-5-((tetrahydro-2H-pyran-4-yl)amino)pyrazine-2-carboxamide] registered a half-life at 1 μM of 7.88 h and a microsomal CLint at 1 μM of 2.9 µL/min/mg.

For `CCc1nc(C(N)=O)c(Nc2ccc(N3CCC(N4CCN(C)CC4)CC3)c(OC)c2)nc1NC1CCOCC1` [Gilteritinib, 6-ethyl-3-((3-methoxy-4-(4-(4-methylpiperazin-1-yl)piperidin-1-yl)phenyl)amino)-5-((tetrahydro-2H-pyran-4-yl)amino)pyrazine-2-carboxamide, reference compound], the half-life at 1 μM is 2.75 h and the microsomal CLint at 1 μM is 8.4 µL/min/mg.
